Counter-ions that a name gives are not always drawn.

Series [1] can be described thus: in vitro. The following applies: male, mouse, pooled liver microsomes, pH 7.4.
On the set-up of series [2]: method as in earlier work. The following applies: ref 3 (supplement); cited from earlier work.
For series [3] the following is noted: cited from earlier work.

`O=C(O)Cc1ccccc1Nc1c(Cl)cccc1Cl` [Diclofenac, diclofenac sodium salt]: the half-life in series [1] amounted to 2.55 h.

Turning to `CCN(CC)CCOC(=O)c1ccc(N)cc1` [Procaine, Procaine hydrochloride], the “time of hydrolysis by human plasma esterases into PABA” value in series [2] is ~ 10 min.

Regarding `C[C@H]1[C@H](C)CC[C@]2(C(=O)O)CC[C@]3(C)C(=CC[C@@H]4[C@@]5(C)C[C@@H](O)[C@H](O)[C@@](C)(CO)[C@@H]5CC[C@]43C)[C@H]12` [asiatic acid], the “bound to plasma proteins” value in series [3] was “more than 95%”.

On to `C=C(C)[C@@H]1CC[C@]2(C(=O)O)CC[C@]3(C)[C@H](CC[C@@H]4[C@@]5(C)CC[C@H](O)C(C)(C)[C@@H]5CC[C@]43C)[C@@H]12` [betulinic acid], for which the “bound to plasma proteins” value in series [3] is “more than 95%”.

Regarding `CC1(C)CC[C@]2(C(=O)O)CC[C@]3(C)C(=CC[C@@H]4[C@@]5(C)CC[C@H](O)C(C)(C)[C@@H]5CC[C@]43C)[C@@H]2C1` [oleanolic acid], in series [3], the “bound to plasma proteins” value is recorded as “more than 95%”.

For the compound `C[C@H]1[C@H](C)CC[C@]2(C(=O)O)CC[C@]3(C)C(=CC[C@@H]4[C@@]5(C)CC[C@H](O)C(C)(C)[C@@H]5CC[C@]43C)[C@H]12` [ursolic acid], the “bound to plasma proteins” value in series [3] is reported as “more than 95%”.

One may read the half-life as how long it takes for the measured level to halve. Read a high half-life as slow loss.
